Results reported in ChEMBL document CHEMBL1201862, “PubChem BioAssay data set” (2004).
The source made the active and inactive calls.

Assays:
[1] = alpha-synuclein stem-loop luciferase translation blockers – H4 neuroglioma cells, luminescence, confirmation (AID 1988); type: functional, cell-based
[2] = Trypanosoma cruzi growth suppression in host cells – NIH3T3 host cells, beta-gal luminescence, confirmation (AID 2044); type: functional, cell-based;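 note: intracellular parasites grown in NIH/3T3 mouse fibroblasts as host cells; luminescent beta-galactosidase reporter signal from transgenic T. cruzi replicating inside host cells; inhibitors lower the luminescence signal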
[3] = luciferase reporter signal suppression in cells – H4 neuroglioma cells, luminescence, dose response (AID 1990); type: functional, cell-based
[4] = NIH3T3 cell viability loss – ATP luminescence, mouse fibroblasts, counter-screen, dose response (AID 2010); type: functional, cell-based;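 note: cells exposed to compound for about 90 hours before reading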
[5] = target: T1, Rac GTPase-activating protein 1 (Homo sapiens, UniProt Q9H0H5); assay: blockers of MgcRacGAP-driven Rac1 GTP hydrolysis – biochemical, ADP Hunter fluorescence, primary and confirmatory, confirmation (AID 624330); type: functional
T1 sequence (Q9H0H5 whole entry): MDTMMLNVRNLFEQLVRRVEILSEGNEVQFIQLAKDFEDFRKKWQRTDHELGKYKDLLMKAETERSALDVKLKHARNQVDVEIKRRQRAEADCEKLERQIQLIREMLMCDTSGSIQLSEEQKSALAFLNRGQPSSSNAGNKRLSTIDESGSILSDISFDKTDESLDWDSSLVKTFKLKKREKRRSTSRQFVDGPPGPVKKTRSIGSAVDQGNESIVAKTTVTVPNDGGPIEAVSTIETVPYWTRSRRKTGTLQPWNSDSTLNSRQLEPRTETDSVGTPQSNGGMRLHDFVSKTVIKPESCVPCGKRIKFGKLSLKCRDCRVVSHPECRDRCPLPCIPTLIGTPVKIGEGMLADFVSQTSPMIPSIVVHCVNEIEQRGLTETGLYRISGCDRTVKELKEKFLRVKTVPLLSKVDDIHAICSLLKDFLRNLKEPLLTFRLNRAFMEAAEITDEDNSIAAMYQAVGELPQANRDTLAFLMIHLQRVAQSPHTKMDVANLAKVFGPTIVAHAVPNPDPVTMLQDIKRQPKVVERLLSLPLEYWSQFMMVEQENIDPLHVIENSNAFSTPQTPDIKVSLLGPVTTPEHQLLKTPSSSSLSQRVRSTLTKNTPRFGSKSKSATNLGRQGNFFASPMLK

[6] = target: T2, Polyadenylate-binding protein 1 (Homo sapiens, UniProt P11940); assay: MLLE domain peptide-binding blockers, IC50 – biochemical, fluorescence polarization, FITC-PAM2 peptide, dose response (AID 602259); type: functional; conditions: read-out: IC50_Mean
[7] = target: T2, Polyadenylate-binding protein 1; assay: MLLE binding blockers, Cy5 peptide tracer – biochemical, fluorescence polarization, Cy5-PAM2 peptide, secondary, miRNA deadenylation inhibitor project, dose response (AID 602260); type: functional; conditions: read-out: IC50_Mean
[8] = target: T3, Heat shock factor protein 1 (Mus musculus, UniProt P38532); assay: decrease of HSF1-responsive luciferase luminescence – cell-based, NIH3T3, dose retest, confirmation (AID 2382); type: functional;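 note: NIH3T3 fibroblasts with HSF1-driven luciferase reporter stressed by proteasome inhibitor MG132; luminescence from HSF1-driven luciferase expression after 8 hours of MG132 stress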
T3 sequence (P38532 whole entry): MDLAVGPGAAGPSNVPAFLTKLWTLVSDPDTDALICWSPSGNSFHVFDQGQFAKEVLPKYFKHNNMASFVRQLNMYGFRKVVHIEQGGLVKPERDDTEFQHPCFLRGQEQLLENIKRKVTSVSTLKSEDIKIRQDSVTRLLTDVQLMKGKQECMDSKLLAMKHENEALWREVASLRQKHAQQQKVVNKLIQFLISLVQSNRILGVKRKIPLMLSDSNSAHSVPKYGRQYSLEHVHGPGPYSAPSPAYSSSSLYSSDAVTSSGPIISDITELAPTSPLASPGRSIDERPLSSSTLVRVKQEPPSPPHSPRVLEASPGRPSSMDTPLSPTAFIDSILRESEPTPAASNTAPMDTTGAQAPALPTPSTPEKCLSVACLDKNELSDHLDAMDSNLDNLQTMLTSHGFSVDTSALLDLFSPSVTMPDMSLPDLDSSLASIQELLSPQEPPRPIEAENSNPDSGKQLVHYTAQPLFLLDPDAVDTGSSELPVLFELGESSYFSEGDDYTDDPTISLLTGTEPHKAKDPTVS

[9] = target: Cytochrome P450 2D6 (Homo sapiens, UniProt P10635);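 note: CYP2D6 member of a cytochrome P450 panel assay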
[10] = target: Cytochrome P450 3A4 (Homo sapiens, UniProt P08684);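 note: CYP3A4 tested as one member of a cytochrome P450 panel screen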
[11] = Luminescence Cell-Based Dose Retest to Confirm Inhibitors of Cancer Stem Cells. [Related pubchem assays (depositor defined):AID2717, AID2721]; type: functional; conditions: Homo sapiens
[12] = target: Cytochrome P450 2C19 (Homo sapiens, UniProt P33261); assay: Cytochrome panel assay with activity outcomes. Panel member name: p450-cyp2c19 Compounds with AC50 equal or less than 10 uM are considered active; type: functional; conditions: read-out: AC50
[13] = target: Cytochrome P450 2C9 (Homo sapiens, UniProt P11712)
[14] = tested on: Streptococcus sp. 'group A'; assay: Streptococcus pyogenes SK(-)GAS viability under kanamycin – luminescence, BacTiterGlo, confirmation, counter-screen for streptokinase expression inhibitor project, dose response (AID 1900); type: functional, organism-based
[15] = target: T4, Streptokinase A (Streptococcus pyogenes serotype M1, UniProt P10520); assay: viability-normalized secreted streptokinase activity reduction – plasminogen activation absorbance, OD405, dose response (AID 1914); type: functional, Streptococcus pyogenes M1 GAS;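 note: secreted streptokinase activity via plasminogen activation per viability signal from cell pellet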
T4 sequence (P10520 whole entry): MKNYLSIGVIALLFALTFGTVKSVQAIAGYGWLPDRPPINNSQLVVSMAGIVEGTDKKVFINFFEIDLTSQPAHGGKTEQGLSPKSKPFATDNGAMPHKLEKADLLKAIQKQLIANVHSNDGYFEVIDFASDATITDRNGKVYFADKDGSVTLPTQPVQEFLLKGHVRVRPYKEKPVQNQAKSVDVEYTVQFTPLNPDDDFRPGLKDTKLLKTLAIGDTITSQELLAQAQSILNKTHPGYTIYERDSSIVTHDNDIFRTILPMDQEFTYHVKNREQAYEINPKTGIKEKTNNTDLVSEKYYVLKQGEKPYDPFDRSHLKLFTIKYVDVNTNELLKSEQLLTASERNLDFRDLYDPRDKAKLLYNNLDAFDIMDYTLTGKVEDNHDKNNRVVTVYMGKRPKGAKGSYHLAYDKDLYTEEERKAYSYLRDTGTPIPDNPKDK

[16] = tested on: Streptococcus; assay: GAS UMAA2166 growth inhibition – luminescence, BacTiterGlo, counter-screen for streptokinase expression inhibitor project, dose response (AID 1915); type: functional, organism-based;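 note: potency for reduction of bacterial viability or growth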

Sequence of Cytochrome P450 2D6 (P10635 whole entry): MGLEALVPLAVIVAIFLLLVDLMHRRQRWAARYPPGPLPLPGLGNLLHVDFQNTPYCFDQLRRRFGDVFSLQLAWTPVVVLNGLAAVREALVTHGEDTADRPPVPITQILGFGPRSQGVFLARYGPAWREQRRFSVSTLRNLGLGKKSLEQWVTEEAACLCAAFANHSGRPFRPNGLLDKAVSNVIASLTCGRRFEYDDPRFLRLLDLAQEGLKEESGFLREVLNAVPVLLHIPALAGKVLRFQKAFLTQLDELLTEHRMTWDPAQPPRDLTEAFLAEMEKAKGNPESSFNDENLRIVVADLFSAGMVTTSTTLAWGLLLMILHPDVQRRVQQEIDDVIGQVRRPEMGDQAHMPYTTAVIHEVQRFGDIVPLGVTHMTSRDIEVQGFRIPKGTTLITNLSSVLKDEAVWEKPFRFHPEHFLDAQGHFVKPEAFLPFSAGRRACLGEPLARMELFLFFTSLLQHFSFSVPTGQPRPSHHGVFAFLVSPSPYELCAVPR
Sequence of Cytochrome P450 3A4 (P08684 whole entry): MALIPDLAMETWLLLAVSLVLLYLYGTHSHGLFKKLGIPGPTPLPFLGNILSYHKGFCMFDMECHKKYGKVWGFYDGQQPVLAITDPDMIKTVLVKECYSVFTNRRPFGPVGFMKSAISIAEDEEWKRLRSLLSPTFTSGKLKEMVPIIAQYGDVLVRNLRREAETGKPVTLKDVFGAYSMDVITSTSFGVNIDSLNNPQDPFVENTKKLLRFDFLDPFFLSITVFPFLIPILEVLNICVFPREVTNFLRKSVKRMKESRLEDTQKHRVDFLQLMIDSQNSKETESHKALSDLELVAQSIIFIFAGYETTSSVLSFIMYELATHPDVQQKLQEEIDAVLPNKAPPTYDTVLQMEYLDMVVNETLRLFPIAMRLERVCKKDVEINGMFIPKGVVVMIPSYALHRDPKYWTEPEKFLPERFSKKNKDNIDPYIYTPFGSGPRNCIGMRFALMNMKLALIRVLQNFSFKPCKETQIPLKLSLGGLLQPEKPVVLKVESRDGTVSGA
T2 sequence (P11940 whole entry, the tested form may be a part): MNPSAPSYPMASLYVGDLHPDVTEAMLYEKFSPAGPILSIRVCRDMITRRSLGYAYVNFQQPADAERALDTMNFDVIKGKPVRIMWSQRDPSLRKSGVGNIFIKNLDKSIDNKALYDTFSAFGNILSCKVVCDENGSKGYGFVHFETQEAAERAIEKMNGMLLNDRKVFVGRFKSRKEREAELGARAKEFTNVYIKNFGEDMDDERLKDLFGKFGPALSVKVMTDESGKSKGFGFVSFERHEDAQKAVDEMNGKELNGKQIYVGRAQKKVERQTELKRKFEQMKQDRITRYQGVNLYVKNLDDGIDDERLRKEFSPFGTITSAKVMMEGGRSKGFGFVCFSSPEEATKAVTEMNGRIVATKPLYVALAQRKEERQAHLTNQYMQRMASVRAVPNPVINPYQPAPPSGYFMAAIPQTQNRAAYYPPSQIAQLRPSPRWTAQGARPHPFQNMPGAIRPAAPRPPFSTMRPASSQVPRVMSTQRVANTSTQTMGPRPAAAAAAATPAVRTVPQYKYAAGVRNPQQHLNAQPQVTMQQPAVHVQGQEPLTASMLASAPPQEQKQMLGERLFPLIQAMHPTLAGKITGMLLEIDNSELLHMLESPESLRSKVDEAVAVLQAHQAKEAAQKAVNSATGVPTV
Sequence of Cytochrome P450 2C19 (P33261 whole entry): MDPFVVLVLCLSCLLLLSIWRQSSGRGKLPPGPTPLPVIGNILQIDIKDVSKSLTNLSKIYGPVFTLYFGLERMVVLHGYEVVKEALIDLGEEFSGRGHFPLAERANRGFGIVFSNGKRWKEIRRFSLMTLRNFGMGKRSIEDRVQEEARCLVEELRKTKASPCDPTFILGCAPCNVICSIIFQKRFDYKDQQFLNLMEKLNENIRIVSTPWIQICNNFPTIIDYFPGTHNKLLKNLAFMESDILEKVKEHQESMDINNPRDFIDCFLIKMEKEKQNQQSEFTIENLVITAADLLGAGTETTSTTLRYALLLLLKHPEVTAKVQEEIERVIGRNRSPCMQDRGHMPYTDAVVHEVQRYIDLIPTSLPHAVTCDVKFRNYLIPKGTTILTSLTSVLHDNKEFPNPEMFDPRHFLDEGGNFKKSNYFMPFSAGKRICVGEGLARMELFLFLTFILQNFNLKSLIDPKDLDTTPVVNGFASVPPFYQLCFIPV
Sequence of Cytochrome P450 2C9 (P11712 whole entry): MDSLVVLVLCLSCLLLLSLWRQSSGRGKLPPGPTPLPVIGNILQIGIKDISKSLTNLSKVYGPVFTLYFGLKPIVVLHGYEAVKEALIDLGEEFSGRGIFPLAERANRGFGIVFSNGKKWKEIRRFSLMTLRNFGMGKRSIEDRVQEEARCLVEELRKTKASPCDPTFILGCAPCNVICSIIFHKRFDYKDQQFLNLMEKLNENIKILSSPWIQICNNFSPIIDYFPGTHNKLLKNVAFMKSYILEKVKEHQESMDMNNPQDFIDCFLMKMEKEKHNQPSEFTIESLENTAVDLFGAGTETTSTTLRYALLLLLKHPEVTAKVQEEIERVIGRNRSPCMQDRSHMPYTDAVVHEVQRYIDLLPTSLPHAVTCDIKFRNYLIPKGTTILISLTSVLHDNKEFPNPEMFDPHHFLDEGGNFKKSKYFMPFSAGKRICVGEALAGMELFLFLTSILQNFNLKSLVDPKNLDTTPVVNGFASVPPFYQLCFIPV

## COc1cccc2sc(Nc3nc(-c4ccncc4)cs3)nc12
[1]
  EC50: 0.601 µM (active)
[2]
  EC50: 2.41 µM (active)
[3]
  EC50: 3.2 µM (active)
[4]
  EC50: 3.65 µM (active)

## O=C(CN1CCCCCC1)NN(Cc1ccccc1)c1ccccc1
[5]
  IC50: 301 µM (active)

## CCN1C(=O)/C(=C/c2ccc(OC)c(OC)c2)N=C1SCC(=O)NCc1ccco1
[6]
  IC50: > 66 µM (inactive)
[7]
  IC50: > 66 µM (inactive)

## CCOP(=O)(OCC)c1cccc(OP(=O)(c2cccc([N+](=O)[O-])c2)c2cccc([N+](=O)[O-])c2)c1
[8]
  EC50: > 195 µM (not active)

## O=C(CN1CCN(C/C=C/c2ccccc2)CC1)Nc1ccccc1C(=O)NC1CC1
[5]
  IC50: 90.5 µM (active)

## C1CC2CN(c3nc4nonc4nc3N3CCSCC3)CCN2C1 (stereo not given)
[6]
  IC50: > 66 µM (inactive)
[7]
  IC50: > 66 µM (inactive)

## CS(=O)(=O)N(Cc1ccccc1)c1ccc(C(=O)NCCSCc2ccco2)cc1
[6]
  IC50: > 66 µM (inactive)
[7]
  IC50: > 66 µM (inactive)

## Cc1ccc(/C=C/C(=O)Nc2nn[nH]n2)o1
[6]
  IC50: > 66 µM (inactive)
[7]
  IC50: > 66 µM (inactive)

## COc1ccc(C(=O)N2CCN=C2SCc2cccnc2)cc1OC
[8]
  EC50: > 195 µM (not active)

## CC(=O)N1CCC[C@@]2(CCN(Cc3ccccc3)C2)C1
[9]
  AC50: 15.8 µM (inconclusive)
[10]
  AC50: 39.8 µM (inconclusive)

## c1ccc2nc(C3=NCCN3)ccc2c1
[9]
  AC50: 20 µM (inconclusive)

## O=C(Nc1ccc(OC(F)F)c(Cl)c1)Nc1ccc2c(c1)OCO2
[11]
  AC50: 2.04 µM (active)

## COc1ccc(-c2cc(C(=O)Nc3ccc(O)cc3)c3ccccc3n2)cc1OC
[5]
  IC50: 159 µM (active)

## CCCN1CCc2c(sc(NC(=O)c3ccc(S(=O)(=O)N(C)c4ccccc4)cc3)c2C(=O)NC)C1
[11]
  AC50: 3.26 µM (active)

## CCN(c1ccccc1)S(=O)(=O)c1c[nH]cn1
[8]
  EC50: > 195 µM (not active)

## CS(=O)(=O)N1CCN(c2ccccc2NC(=O)c2ccc(Br)o2)CC1
[9]
  AC50: 22.4 µM (inconclusive)
[12]
  AC50: 39.8 µM (inconclusive)

## CCOC(=O)N1CCN(S(=O)(=O)c2ccc3c(c2)OCC(=O)N3)CC1
[8]
  EC50: > 195 µM (not active)

## CCN(CCS(=O)(=O)c1ccc(Cl)cc1)C(=O)Nc1ccccc1
[8]
  EC50: > 195 µM (not active)

## C/C(CCN1CCCc2nc(C)c(C)cc21)=N\O[C@@H](C)c1cn([C@H](CO)Cc2ccccc2)nn1
[9]
  AC50: 3.98 µM (inconclusive)

## Cc1csc(=O)n1CCC(=O)OCC(=O)NNC(=O)c1ccc(Cl)cc1
[6]
  IC50: > 66 µM (inactive)
[7]
  IC50: > 66 µM (inactive)

## Cc1cc(C)cc(NC(=O)Nc2ccc(-n3ccc(C(F)(F)F)n3)cc2)c1
[11]
  AC50: 1.61 µM (active)

## NN=C(S)NC1CC2CC1C1C=CCC21 (stereo not given)
[8]
  EC50: > 195 µM (not active)

## CC(C)NC(=O)N1CCCC2(CCN(C(=O)c3csnn3)CC2)C1
[9]
  AC50: 12.6 µM (inconclusive)
[10]
  AC50: 25.1 µM (inconclusive)

## O=C(CN1CCc2ccccc21)NC(=O)NCc1ccco1
[9]
  AC50: 14.1 µM (inconclusive)
[10]
  AC50: 28.2 µM (inconclusive)

## Cc1nc2cc(C(=O)O)ccc2s1
[6]
  IC50: > 66 µM (inactive)
[7]
  IC50: > 66 µM (inactive)

## Nc1ccc2c(c1)Oc1ccccc1C=C2
[11]
  AC50: > 195 µM (inactive)

## O=c1c(-c2cccs2)nc2cnc(N3CCNCC3)nc2n1CCc1ccccc1
[9]
  AC50: 25.1 µM (inconclusive)

## Cc1ccc(Cl)cc1NC(=O)C1COc2ccccc2O1 (stereo not given)
[8]
  EC50: > 195 µM (not active)

## Cc1ccc(C(c2sc3ncnn3c2O)N2CC(C)CC(C)C2)cc1 (stereo not given)
[8]
  EC50: > 195 µM (not active)

## FC(F)(F)c1ccccc1-c1nc(NCc2cccs2)c2ccccc2n1
[9]
  AC50: 25.1 µM (inconclusive)

## CCOC(=O)CSC1=N/C(=C\c2cc(OC)c(OC)c(OC)c2)C(=O)N1C
[6]
  IC50: > 66 µM (inactive)
[7]
  IC50: > 66 µM (inactive)

## c1ccc(Cc2nn3c(-c4ccncc4)nnc3s2)cc1
[6]
  IC50: > 66 µM (inactive)
[7]
  IC50: > 66 µM (inactive)

## CCOC(=O)C(CC)Sc1nc2c(c(=O)[nH]c(=O)n2C)n1CCc1ccccc1 (stereo not given)
[6]
  IC50: > 66 µM (inactive)
[7]
  IC50: > 66 µM (inactive)

## O=C(c1cc2c(s1)-c1ccccc1OC2)N1CCN(c2ccccc2)CC1
[8]
  EC50: > 195 µM (not active)

## Cc1cc(C(=O)NC2CCCN(Cc3ccc(Cl)cc3)C2)n(C)n1 (stereo not given)
[8]
  EC50: > 195 µM (not active)

## NC(=O)CC(NC(=O)Cc1ccc(Br)cc1)c1ccc(NCc2cc(F)ccc2F)c([N+](=O)[O-])c1 (stereo not given)
[11]
  AC50: 2.52 µM (active)

## COCC(=O)N1CCC2(CCCN(c3ncccn3)C2)CC1
[9]
  AC50: 20 µM (inconclusive)

## O=C(/C=C/c1ccco1)NC(=S)Nc1ccc(N2CCCC2)cc1
[6]
  IC50: > 66 µM (inactive)
[7]
  IC50: > 66 µM (inactive)

## CCOc1cc(NC(=O)c2ccccn2)c(OCC)cc1NC(=O)c1ccccc1
[11]
  AC50: 24.4 µM (active)

## CCCSc1nnc(CNS(=O)(=O)c2ccc(C)cc2)n1C
[8]
  EC50: > 195 µM (not active)

## CCOc1ccc(-n2c(SCC(=O)Nc3ccc(OC)cc3)nc3c(c2=O)SCC3)cc1
[9]
  AC50: 15.8 µM (inconclusive)
[13]
  AC50: 3.55 µM (inconclusive)
[10]
  AC50: 7.94 µM (inconclusive)

## Nc1ccc(N=Nc2ccccc2)c2ccccc12
[14]
  EC50: 8.03 µM (active)
[15]
  EC50: > 150 µM (not active)
[11]
  AC50: 6.49 µM (active)
[16]
  EC50: 9.13 µM (active)

## CCN1C(=O)/C(=C2\SC(=S)N(c3c(C)n(C)n(-c4ccccc4)c3=O)C2=O)c2ccccc21
[6]
  IC50: > 66 µM (inactive)
[7]
  IC50: > 66 µM (inactive)

## O=C(NCCN1CCN(Cc2ccccc2)CC1)C1c2ccccc2C(=O)N2CCc3ccccc3C12 (stereo not given)
[9]
  AC50: 11.2 µM (inconclusive)
[12]
  AC50: 39.8 µM (inconclusive)

## COc1cc2sc(-c3ccccc3OC)c(-c3ccc(O)cc3)c2cc1OC
[11]
  AC50: 2.32 µM (active)

## C=C(C)c1cccc(C(C)(C)NC(=O)Nc2cc(C)ccc2OC)c1
[9]
  AC50: 12.6 µM (inconclusive)

## Cc1ccc(S(=O)(=O)Nc2cc(C)c(O)c(Sc3nnc(C)[nH]3)c2)cc1
[6]
  IC50: > 66 µM (inactive)
[7]
  IC50: > 66 µM (inactive)

## CC1=C(C(=O)OCc2ccccc2)C(c2ccc([N+](=O)[O-])cc2)NC(=O)N1CCCCCC(=O)O (stereo not given)
[9]
  AC50: 20 µM (inconclusive)
[10]
  AC50: 10 µM (inconclusive)

## CCN(CC)c1ccc(/C=N/NC(=O)c2cc3ccccc3[nH]2)cc1
[5]
  IC50: 146 µM (active)
